Measured values taken from patent US8959984B2, “Proteome-wide quantification of small molecule binding to cellular target proteins” (priority 2007, dated 2015).
Where two headings read alike, the source gives them in different places.

Key:
SPR = SPR (Homo sapiens, UniProt P35270); experiment: binding to AX14596 beads (HeLa lysate, SILAC MS); parameters: endogenous in cells; host or cells: HeLa S3
Experimental: (§1) Differentially SILAC-encoded cell lysates were either incubated with the inhibitor beads displaying immobilized AX14596 or control resin devoid of ligand. In parallel, the supernatant from the first binding step was subjected to a second incubation with the AX14596 resin (FIG. 4). The resulting three elution fractions were combined, resolved by gel electrophoresis, proteolytically digested and the relative abundance of the retained proteins quantified. Proteins showing considerable binding to the control resin were identified as non-specific interactors and therefore not considered further. […] These target-specific ratios were similar in “label switch” experiments (FIGS. 6a and 6c). The binding equilibrium was determined in parallel control SILAC experiments as well as the excess of the immobilized compound over its cellular targets, the excess preferably being a molar excess (FIG. 7 and FIG. 8).
(§2) Cysteine carbamidomethylation was set as a fixed modification and N-acetyl protein and oxidized methionine were allowed as variable modifications. Spectra that were determined to result from heavy labeled peptides in the pre-search detection of SILAC partners by MaxQuant were searched with the fixed modifications Lys^4, Lys^8, Arg^6 and Arg^10, whereas MS/MS spectra for which no SILAC state could be assigned before database searching were searched with Lys^4, Lys^8, Arg^6 and Arg^10 as variable modifications. The mass tolerance was set to 5 ppm for monoisotopic precursor ions and to 0.5 Da for MS/MS peaks. The minimum peptide length was set to 6 amino acids and up to three missed cleavages and three isotopically labeled amino acids were permitted per peptide. The accepted false discovery rate (FDR) was 1% for the proteins and peptides. The cut-off for the posterior error probability (PEP) of peptides was set to 10%. Peptide PEPs were determined by generating Mascot score and peptide-length-dependent histograms for both the forward and the reverse hits and then deriving the probability of a false identification for a given top-scoring peptide using Bayes' theorem. The PEPs of peptides belonging to the same proteins were then multiplied. Each peptide sequence was considered only once with the lowest PEP determined in case of multiple sequencing of the same isotopic pattern or of peptide species with different SILAC, charge or modification states. Proteins were then sorted according to their products of their peptide PEPs and included until a FDR of 1% was reached according to the fraction of reverse proteins contained in the protein list. In addition to the FDR threshold applied for protein identification, proteins were only included when they were identified with at least two peptides (of which one was required to be unique for the protein) and quantified if at least on quantifiable SILAC pair was associated with them. Outliers were not removed as protein ratios were calculated as the median instead of the average of all peptide ratios. For peptides shared among different identified proteins, SILAC ratios were only considered for the ratio of the protein identified with the highest number of unique peptides. Protein ratios for the different in vitro association experiments were corrected for the initial SILAC pooling ratio, which was determined from the median of protein ratios in pooled SILAC-encoded cell extracts.

RPL27A = RPL27A (Homo sapiens, UniProt P46776); experiment: binding to AX14596 beads (HeLa lysate, SILAC MS); parameters: endogenous in cells; host or cells: HeLa S3
Experimental: as §1, §2

NUDT12 = NUDT12 (Homo sapiens, UniProt Q9BQG2); experiment: binding to AX14596 beads (HeLa lysate, SILAC MS); parameters: endogenous in cells; host or cells: HeLa S3
Experimental: as §1, §2

RPL7A = RPL7A (Homo sapiens, UniProt P62424); experiment: binding to AX14596 beads (HeLa lysate, SILAC MS); parameters: endogenous in cells; host or cells: HeLa S3
Experimental: as §1, §2

MNK1 (MKNK1) = MNK1 (MKNK1) (Homo sapiens, UniProt Q9BUB5); experiment: binding to AX14596 beads (HeLa lysate, SILAC MS); parameters: endogenous in cells; host or cells: HeLa S3
Experimental: as §1, §2

NAMPT = NAMPT (Homo sapiens, UniProt P43490); experiment: binding to AX14596 beads (HeLa lysate, SILAC MS); parameters: endogenous in cells; host or cells: HeLa S3
Experimental: as §1, §2

CK1e (CSNK1E) = CK1e (CSNK1E) (Homo sapiens, UniProt P49674); experiment: binding to AX14596 beads (HeLa lysate, SILAC MS); parameters: endogenous in cells; host or cells: HeLa S3
Experimental: as §1, §2

CaMK2d (CAMK2D) = CaMK2d (CAMK2D) (Homo sapiens, UniProt Q13557); experiment: binding to AX14596 beads (HeLa lysate, SILAC MS); parameters: endogenous in cells; host or cells: HeLa S3
Experimental: as §1, §2

RPL7 = RPL7 (Homo sapiens, UniProt P18124); experiment: binding to AX14596 beads (HeLa lysate, SILAC MS); parameters: endogenous in cells; host or cells: HeLa S3
Experimental: as §1, §2

[1] = target: T1, MST3 (STK24, IPI00872754) (Homo sapiens, UniProt Q9Y6E0); experiment: binding to VI16742 beads (HeLa lysate, SILAC MS)
T1 construct: endogenous in cells; host or cells: HeLa S3 cell lysate

GSK3A = GSK3A (Homo sapiens, UniProt P49840); experiment: binding to immobilized V16742 (IVA1/IVA2, HeLa lysate, MS)
Sequence of GSK3A (P49840 whole entry): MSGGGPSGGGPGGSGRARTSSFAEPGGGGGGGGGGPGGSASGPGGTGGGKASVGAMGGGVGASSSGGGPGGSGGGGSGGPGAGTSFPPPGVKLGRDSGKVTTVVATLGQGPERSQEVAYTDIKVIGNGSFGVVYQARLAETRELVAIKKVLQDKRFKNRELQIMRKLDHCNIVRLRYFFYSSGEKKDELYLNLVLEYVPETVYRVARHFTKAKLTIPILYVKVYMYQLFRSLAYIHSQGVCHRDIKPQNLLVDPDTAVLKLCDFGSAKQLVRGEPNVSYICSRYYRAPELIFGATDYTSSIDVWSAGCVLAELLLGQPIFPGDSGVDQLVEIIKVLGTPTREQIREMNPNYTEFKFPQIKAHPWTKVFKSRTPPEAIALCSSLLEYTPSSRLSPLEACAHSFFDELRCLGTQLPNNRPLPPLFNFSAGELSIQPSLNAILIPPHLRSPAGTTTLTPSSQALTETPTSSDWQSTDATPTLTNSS

Sequence of SPR (P35270 whole entry): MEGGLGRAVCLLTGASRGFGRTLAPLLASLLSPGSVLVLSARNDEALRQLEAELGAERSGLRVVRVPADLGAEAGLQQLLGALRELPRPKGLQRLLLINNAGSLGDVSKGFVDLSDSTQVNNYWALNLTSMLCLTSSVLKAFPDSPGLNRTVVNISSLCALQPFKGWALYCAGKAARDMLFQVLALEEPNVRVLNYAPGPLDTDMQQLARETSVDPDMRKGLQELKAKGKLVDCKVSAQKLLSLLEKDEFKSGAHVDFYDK
Sequence of NUDT12 (Q9BQG2 whole entry): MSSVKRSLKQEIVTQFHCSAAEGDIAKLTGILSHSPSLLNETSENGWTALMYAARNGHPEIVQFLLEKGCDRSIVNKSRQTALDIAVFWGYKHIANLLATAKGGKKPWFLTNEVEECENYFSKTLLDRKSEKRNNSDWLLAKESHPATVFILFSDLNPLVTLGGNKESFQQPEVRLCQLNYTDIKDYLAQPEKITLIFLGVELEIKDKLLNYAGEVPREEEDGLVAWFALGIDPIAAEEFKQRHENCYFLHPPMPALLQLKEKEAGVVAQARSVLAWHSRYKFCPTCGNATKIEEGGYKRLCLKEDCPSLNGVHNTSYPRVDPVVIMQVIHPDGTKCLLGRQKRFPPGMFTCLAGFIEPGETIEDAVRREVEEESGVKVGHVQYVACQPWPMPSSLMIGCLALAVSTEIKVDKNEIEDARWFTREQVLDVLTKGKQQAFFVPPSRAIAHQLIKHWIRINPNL
Sequence of MNK1 (MKNK1) (Q9BUB5 whole entry): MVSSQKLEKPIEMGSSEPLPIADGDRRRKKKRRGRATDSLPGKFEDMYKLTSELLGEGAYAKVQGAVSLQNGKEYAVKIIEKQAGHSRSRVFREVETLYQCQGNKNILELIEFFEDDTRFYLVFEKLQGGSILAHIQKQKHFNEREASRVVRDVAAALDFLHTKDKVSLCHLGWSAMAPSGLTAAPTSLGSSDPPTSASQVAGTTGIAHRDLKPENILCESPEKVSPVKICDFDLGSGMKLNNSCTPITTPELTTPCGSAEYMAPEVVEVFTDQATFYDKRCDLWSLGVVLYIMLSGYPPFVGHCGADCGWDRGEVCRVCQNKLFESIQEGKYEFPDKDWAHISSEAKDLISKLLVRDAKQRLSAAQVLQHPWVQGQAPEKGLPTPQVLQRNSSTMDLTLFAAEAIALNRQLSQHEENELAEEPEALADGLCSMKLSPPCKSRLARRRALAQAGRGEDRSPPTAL
T1 sequence (Q9Y6E0 whole entry): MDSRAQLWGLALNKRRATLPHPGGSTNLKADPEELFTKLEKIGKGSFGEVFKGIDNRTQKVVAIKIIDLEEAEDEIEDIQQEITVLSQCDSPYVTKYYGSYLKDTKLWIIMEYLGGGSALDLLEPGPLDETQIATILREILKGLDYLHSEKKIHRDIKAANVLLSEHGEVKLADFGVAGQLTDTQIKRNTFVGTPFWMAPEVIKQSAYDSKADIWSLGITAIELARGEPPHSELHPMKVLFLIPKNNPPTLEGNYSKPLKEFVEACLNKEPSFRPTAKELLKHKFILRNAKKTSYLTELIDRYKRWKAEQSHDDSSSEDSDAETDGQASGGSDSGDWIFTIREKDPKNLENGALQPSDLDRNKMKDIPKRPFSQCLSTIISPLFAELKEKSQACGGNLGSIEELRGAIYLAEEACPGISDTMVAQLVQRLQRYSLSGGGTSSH
Sequence of CK1e (CSNK1E) (P49674 whole entry): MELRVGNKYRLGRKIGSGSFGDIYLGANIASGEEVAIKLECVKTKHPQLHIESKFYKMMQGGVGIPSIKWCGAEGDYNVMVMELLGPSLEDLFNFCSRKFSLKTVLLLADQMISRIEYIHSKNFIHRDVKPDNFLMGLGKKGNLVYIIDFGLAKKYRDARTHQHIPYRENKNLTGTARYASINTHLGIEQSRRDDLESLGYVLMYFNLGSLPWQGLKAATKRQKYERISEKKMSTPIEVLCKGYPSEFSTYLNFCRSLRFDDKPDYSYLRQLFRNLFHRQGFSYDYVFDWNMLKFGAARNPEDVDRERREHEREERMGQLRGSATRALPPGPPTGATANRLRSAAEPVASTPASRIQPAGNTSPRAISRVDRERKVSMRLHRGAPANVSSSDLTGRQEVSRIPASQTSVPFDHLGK
Sequence of NAMPT (P43490 whole entry): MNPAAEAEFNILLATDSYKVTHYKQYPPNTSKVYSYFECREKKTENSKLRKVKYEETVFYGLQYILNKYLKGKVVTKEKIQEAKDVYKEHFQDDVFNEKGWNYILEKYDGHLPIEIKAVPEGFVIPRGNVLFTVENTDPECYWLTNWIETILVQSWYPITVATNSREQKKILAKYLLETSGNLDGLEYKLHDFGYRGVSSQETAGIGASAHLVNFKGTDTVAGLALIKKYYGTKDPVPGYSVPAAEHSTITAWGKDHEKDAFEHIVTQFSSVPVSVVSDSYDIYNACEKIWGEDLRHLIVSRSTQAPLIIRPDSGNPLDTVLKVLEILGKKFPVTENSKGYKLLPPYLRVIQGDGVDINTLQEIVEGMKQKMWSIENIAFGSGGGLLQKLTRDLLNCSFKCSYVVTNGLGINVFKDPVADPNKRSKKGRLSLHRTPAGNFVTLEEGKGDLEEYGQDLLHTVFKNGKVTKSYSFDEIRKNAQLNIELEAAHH
Sequence of CaMK2d (CAMK2D) (Q13557 whole entry): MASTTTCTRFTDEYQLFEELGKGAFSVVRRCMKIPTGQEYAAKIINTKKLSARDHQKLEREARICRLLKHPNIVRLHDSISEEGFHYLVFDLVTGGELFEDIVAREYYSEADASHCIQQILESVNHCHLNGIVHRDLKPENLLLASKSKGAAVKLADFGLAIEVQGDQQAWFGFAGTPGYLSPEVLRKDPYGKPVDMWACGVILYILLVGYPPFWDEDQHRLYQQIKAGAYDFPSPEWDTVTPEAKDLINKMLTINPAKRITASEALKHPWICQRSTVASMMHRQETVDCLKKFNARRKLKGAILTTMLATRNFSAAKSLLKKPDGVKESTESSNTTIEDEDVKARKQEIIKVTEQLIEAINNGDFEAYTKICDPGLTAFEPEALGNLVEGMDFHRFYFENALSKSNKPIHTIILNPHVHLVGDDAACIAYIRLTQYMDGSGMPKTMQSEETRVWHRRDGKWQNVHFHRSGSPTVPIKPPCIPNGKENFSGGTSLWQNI

## COc1cc2ncnc(Nc3ccc(F)c(Cl)c3)c2cc1OCCCN [AX14596]
SPR
  Ki: 1860 µM
  r (3 mg/1 mg lysate): 2.91
  r (5 h/2.5 h inc. time): 2.43
  rAVERAGE (2. inc/1. inc): 0.95
  rAVERAGE (control/1. inc): 0.02
RPL27A
  Ki: 2930 µM
  r (3 mg/1 mg lysate): 1.75
  r (5 h/2.5 h inc. time): 1.12
  rAVERAGE (2. inc/1. inc): 0.97
  rAVERAGE (control/1. inc): 0.06
NUDT12
  Ki: 16.1 µM
  r (3 mg/1 mg lysate): 2.24
  r (5 h/2.5 h inc. time): 0.91
  rAVERAGE (2. inc/1. inc): 0.14
  rAVERAGE (control/1. inc): 0.04
RPL7A
  Ki: 2100 µM
  r (3 mg/1 mg lysate): 5.23
  rAVERAGE (2. inc/1. inc): 0.95
  rAVERAGE (control/1. inc): 0.17
MNK1 (MKNK1)
  Ki: 922 µM
  r (3 mg/1 mg lysate): 2.94
  r (5 h/2.5 h inc. time): 1.05
  rAVERAGE (2. inc/1. inc): 0.90
  rAVERAGE (control/1. inc): 0.04
NAMPT
  Ki: 41.2 µM
  r (3 mg/1 mg lysate): 7.48
  r (5 h/2.5 h inc. time): 0.39
  rAVERAGE (2. inc/1. inc): 0.29
  rAVERAGE (control/1. inc): 0.04
CK1e (CSNK1E)
  Ki: 4080 µM
  r (3 mg/1 mg lysate): 2.87
  r (5 h/2.5 h inc. time): 1.23
  rAVERAGE (2. inc/1. inc): 0.98
  rAVERAGE (control/1. inc): 0.09
CaMK2d (CAMK2D)
  Ki: 87.2 µM
  r (3 mg/1 mg lysate): 2.39
  r (5 h/2.5 h inc. time): 1.13
  rAVERAGE (2. inc/1. inc): 0.47
  rAVERAGE (control/1. inc): 0.07
RPL7
  Ki: 2310 µM
  r (3 mg/1 mg lysate): 1.82
  rAVERAGE (2. inc/1. inc): 0.96
  rAVERAGE (control/1. inc): 0.19

## CC(C)n1c(=O)ccc2cnc(Nc3ccc(OCCN)cc3)nc21 [V16742]
[1]; 5 h vs 2.5 h incubation time
  r (5 h/2.5 h INC. TIME): 1.41
[1]; control beads vs first incubation
  rAVERAGE (CTRL/1 INC): 0.06
[1]; immobilized VI16742
  Ki: 89.8 µM
[1]; second vs first incubation
  rAVERAGE (2 INC/1 INC): 0.63

## CC(C)n1c(=O)ccc2cnc(Nc3ccc(OCCN)cc3)nc21 [compound 16742]
GSK3A; EXPERIMENT 1
  Percent bound at 1.87 μM 16742 conc: 7.34%
  Percent bound at 8.74 μM 16742 conc: 35.37%
  Percent bound at 52 μM 16742 conc: 84.48%
GSK3A; EXPERIMENT 1, read-out: Kd
  Kd: 14.3 µM
GSK3A; EXPERIMENT 2
  Percent bound at 1.87 μM 16742 conc: 4.30%
  Percent bound at 8.74 μM 16742 conc: 29.09%
  Percent bound at 52 μM 16742 conc: 78.29%
GSK3A; EXPERIMENT 2, read-out: Kd
  Kd: 18.8 µM
GSK3A; read-out: Kd Avg
  Kd: 16.6 µM
